Assay results from US11840526B2, “Compounds and method for preparing the same” (BEIJING GRAND JOHAMU PHARMACEUTICAL COMPANY, LTD., priority 2022, dated 2023).

Test: Powder characteristics (Carr index, anti-caking property, fluidity) by intelligent powder comprehensive characteristic tester
Type: physicochemical
Parameters: key to Fluidity: Good: “good” means good solid state and good fluidity, which is favorable for formulation development; Less good: “less good” means average fluidity; Poor: “poor” means poor fluidity, which cannot be used for formulation development; key to Anti-caking property: Good: “good” means substantially no agglomeration or clumping; Less good: “less good” means partial clumping or agglomeration; Poor: “poor” means severe or complete clumping
Description: The performance of the drug powder is influenced by various factors, among which the fluidity, anti-caking property and the like of the starting material drug (i.e., active pharmaceutical ingredient) play a key role in the formulation design, the quality control, the process design, the industrial production and the like of the drug. In the pharmaceutical field, poor fluidity mainly affects the uniformity of the mixed material, and such mixed material is easy to delaminate and has uneven material content; at the same time, the resulting tablet are easy to delaminate during tableting, resulting in inconsistent content of the tablet pressed at different times, and it is easy to cause a significant difference in tablet weight.
The fluidity, the anti-caking property and the like of compound 1 (i.e., (6E)-6-[(6-chloro-2-methyl-2H-indazol-5-yl)imino]-3-[(1-methyl-1H-1,2,4-triazol-3-yl)methyl]-1-(2,4,5-trifluorobenzyl)-1,3,5-triazinane-2,4-dione with different purities) in the above Comparative Examples 1-2 and Examples 1-12 were measured by an intelligent powder comprehensive characteristic tester (HMKTest LABULK, model: HMKFlow 6393 PT1000).
The Carr index reflects the quality of the fluidity, and a smaller value indicates better fluidity, while a Carr index of more than 23% generally indicates poor fluidity. For anti-caking property, “good” means substantially no agglomeration or clumping, “less good” means partial clumping or agglomeration, and “poor” means severe or complete clumping. For fluidity, “good” means good solid state and good fluidity, which is favorable for formulation development; “less good” means average fluidity; and “poor” means poor fluidity, which cannot be used for formulation development.
Similarly, the fluidity of the fumarate salt solid form of compound 1 prepared in the above Examples 28-29 and Comparative Example 3 was measured.

[1] = solid form of compound 1, smaller value = better fluidity, more than 23% generally indicates poor fluidity
[2] = fumarate salt solid form of compound 1

Anti-caking property (solid form of compound 1)	Fluidity (solid form of compound 1)	Carr index (%) [1]	Anti-caking property [2]	Carr index (%) [2]	Fluidity [2]	SMILES
Poor	Poor	42.1%				Cn1cnc(Cn2c(=O)[nH]/c(=N\c3cc4cn(C)nc4cc3Cl)n(Cc3cc(F)c(F)cc3F)c2=O)n1 [Comparative Example 1, (6E)-6-[(6-chloro-2-methyl-2H-indazol-5-yl)imino]-3-[(1-methyl-1H-1,2,4-triazol-3-yl)methyl]-1-(2,4,5-trifluorobenzyl)-1,3,5-triazinane-2,4-dione, reference compound]
Poor	Poor	39.4%				Cn1cnc(Cn2c(=O)[nH]/c(=N\c3cc4cn(C)nc4cc3Cl)n(Cc3cc(F)c(F)cc3F)c2=O)n1 [Comparative Example 2, (6E)-6-[(6-chloro-2-methyl-2H-indazol-5-yl)imino]-3-[(1-methyl-1H-1,2,4-triazol-3-yl)methyl]-1-(2,4,5-trifluorobenzyl)-1,3,5-triazinane-2,4-dione, reference compound]
			poor and Poor	36.1%	poor and Poor	Cn1cnc(Cn2c(=O)[nH]/c(=N\c3cc4cn(C)nc4cc3Cl)n(Cc3cc(F)c(F)cc3F)c2=O)n1 [Comparative Example 3, (6E)-6-[(6-chloro-2-methyl-2H-indazol-5-yl)imino]-3-[(1-methyl-1H-1,2,4-triazol-3-yl)methyl]-1-(2,4,5-trifluorobenzyl)-1,3,5-triazinane-2,4-dione, reference compound]
Less good	Good	21.4%				Cn1cnc(Cn2c(=O)[nH]/c(=N\c3cc4cn(C)nc4cc3Cl)n(Cc3cc(F)c(F)cc3F)c2=O)n1 [Example 1, (6E)-6-[(6-chloro-2-methyl-2H-indazol-5-yl)imino]-3-[(1-methyl-1H-1,2,4-triazol-3-yl)methyl]-1-(2,4,5-trifluorobenzyl)-1,3,5-triazinane-2,4-dione]
Less good	Good	20.7%				Cn1cnc(Cn2c(=O)[nH]/c(=N\c3cc4cn(C)nc4cc3Cl)n(Cc3cc(F)c(F)cc3F)c2=O)n1 [Example 2, (6E)-6-[(6-chloro-2-methyl-2H-indazol-5-yl)imino]-3-[(1-methyl-1H-1,2,4-triazol-3-yl)methyl]-1-(2,4,5-trifluorobenzyl)-1,3,5-triazinane-2,4-dione]
Less good	Good	18.7%				Cn1cnc(Cn2c(=O)[nH]/c(=N\c3cc4cn(C)nc4cc3Cl)n(Cc3cc(F)c(F)cc3F)c2=O)n1 [Example 3, (6E)-6-[(6-chloro-2-methyl-2H-indazol-5-yl)imino]-3-[(1-methyl-1H-1,2,4-triazol-3-yl)methyl]-1-(2,4,5-trifluorobenzyl)-1,3,5-triazinane-2,4-dione]
Less good	Good	19.4%				Cn1cnc(Cn2c(=O)[nH]/c(=N\c3cc4cn(C)nc4cc3Cl)n(Cc3cc(F)c(F)cc3F)c2=O)n1 [Example 4, (6E)-6-[(6-chloro-2-methyl-2H-indazol-5-yl)imino]-3-[(1-methyl-1H-1,2,4-triazol-3-yl)methyl]-1-(2,4,5-trifluorobenzyl)-1,3,5-triazinane-2,4-dione]
Less good	Good	18.8%				Cn1cnc(Cn2c(=O)[nH]/c(=N\c3cc4cn(C)nc4cc3Cl)n(Cc3cc(F)c(F)cc3F)c2=O)n1 [Example 5, (6E)-6-[(6-chloro-2-methyl-2H-indazol-5-yl)imino]-3-[(1-methyl-1H-1,2,4-triazol-3-yl)methyl]-1-(2,4,5-trifluorobenzyl)-1,3,5-triazinane-2,4-dione]
Less good	Good	18.5%				Cn1cnc(Cn2c(=O)[nH]/c(=N\c3cc4cn(C)nc4cc3Cl)n(Cc3cc(F)c(F)cc3F)c2=O)n1 [Example 6, (6E)-6-[(6-chloro-2-methyl-2H-indazol-5-yl)imino]-3-[(1-methyl-1H-1,2,4-triazol-3-yl)methyl]-1-(2,4,5-trifluorobenzyl)-1,3,5-triazinane-2,4-dione]
Less good	Good	17.1%				Cn1cnc(Cn2c(=O)[nH]/c(=N\c3cc4cn(C)nc4cc3Cl)n(Cc3cc(F)c(F)cc3F)c2=O)n1 [Example 7, (6E)-6-[(6-chloro-2-methyl-2H-indazol-5-yl)imino]-3-[(1-methyl-1H-1,2,4-triazol-3-yl)methyl]-1-(2,4,5-trifluorobenzyl)-1,3,5-triazinane-2,4-dione]
Less good	Good	21.2%				Cn1cnc(Cn2c(=O)[nH]/c(=N\c3cc4cn(C)nc4cc3Cl)n(Cc3cc(F)c(F)cc3F)c2=O)n1 [Example 8, (6E)-6-[(6-chloro-2-methyl-2H-indazol-5-yl)imino]-3-[(1-methyl-1H-1,2,4-triazol-3-yl)methyl]-1-(2,4,5-trifluorobenzyl)-1,3,5-triazinane-2,4-dione]
Good	Good	12.6%				Cn1cnc(Cn2c(=O)[nH]/c(=N\c3cc4cn(C)nc4cc3Cl)n(Cc3cc(F)c(F)cc3F)c2=O)n1 [Example 9, (6E)-6-[(6-chloro-2-methyl-2H-indazol-5-yl)imino]-3-[(1-methyl-1H-1,2,4-triazol-3-yl)methyl]-1-(2,4,5-trifluorobenzyl)-1,3,5-triazinane-2,4-dione]
Good	Good	13.4%				Cn1cnc(Cn2c(=O)[nH]/c(=N\c3cc4cn(C)nc4cc3Cl)n(Cc3cc(F)c(F)cc3F)c2=O)n1 [Example 10, (6E)-6-[(6-chloro-2-methyl-2H-indazol-5-yl)imino]-3-[(1-methyl-1H-1,2,4-triazol-3-yl)methyl]-1-(2,4,5-trifluorobenzyl)-1,3,5-triazinane-2,4-dione]
Good	Good	14.1%				Cn1cnc(Cn2c(=O)[nH]/c(=N\c3cc4cn(C)nc4cc3Cl)n(Cc3cc(F)c(F)cc3F)c2=O)n1 [Example 11, (6E)-6-[(6-chloro-2-methyl-2H-indazol-5-yl)imino]-3-[(1-methyl-1H-1,2,4-triazol-3-yl)methyl]-1-(2,4,5-trifluorobenzyl)-1,3,5-triazinane-2,4-dione]
Good	Good	15.1%				Cn1cnc(Cn2c(=O)[nH]/c(=N\c3cc4cn(C)nc4cc3Cl)n(Cc3cc(F)c(F)cc3F)c2=O)n1 [Example 12, (6E)-6-[(6-chloro-2-methyl-2H-indazol-5-yl)imino]-3-[(1-methyl-1H-1,2,4-triazol-3-yl)methyl]-1-(2,4,5-trifluorobenzyl)-1,3,5-triazinane-2,4-dione]
			Good	11.3%	Good	Cn1cnc(Cn2c(=O)[nH]/c(=N\c3cc4cn(C)nc4cc3Cl)n(Cc3cc(F)c(F)cc3F)c2=O)n1.O=C(O)/C=C/C(=O)O [Example 28, (6E)-6-[(6-chloro-2-methyl-2H-indazol-5-yl)imino]-3-[(1-methyl-1H-1,2,4-triazol-3-yl)methyl]-1-(2,4,5-trifluorobenzyl)-1,3,5-triazinane-2,4-dione fumarate salt]
			Less good	12.1%	Good	Cn1cnc(Cn2c(=O)[nH]/c(=N\c3cc4cn(C)nc4cc3Cl)n(Cc3cc(F)c(F)cc3F)c2=O)n1 [Example 29, (6E)-6-[(6-chloro-2-methyl-2H-indazol-5-yl)imino]-3-[(1-methyl-1H-1,2,4-triazol-3-yl)methyl]-1-(2,4,5-trifluorobenzyl)-1,3,5-triazinane-2,4-dione]
